Patent US12365670B2, “GLP-IR agonists and uses thereof” (QILU REGOR THERAPEUTICS INC., priority 2018, dated 2025)

Target: GLP1R (Homo sapiens, UniProt P43220)
Experiment: GLP1R cAMP HTRF assay, HEK293/GLP-1R/CRE/Luc (HEK293T cells)
Format: cell-based
Settings: concentration yielding 50% of the maximum cAMP level of the same compound
Experimental: GLP-1R-mediated agonist activity was determined with a cell-based functional assay utilizing an HTRF (Homogeneous Time-Resolved Fluorescence) cAMP detection kit (cAMP Dynamic 2 Assay Kit; CisBio cat #62AM4PEC) that measures cAMP levels in the cell. The method is a competitive immunoassay between native cAMP produced by the cells and exogenous cAMP labeled with the dye d2. The tracer binding is visualized by a mAb anti-cAMP labeled with Cryptate. The specific signal (i.e., energy transfer) is inversely proportional to the concentration of cAMP in either standard or experimental sample.
A cell line stably expressing the receptor was isolated. […]
IBMX and BSA were freshly added on the day of assay]. A 10 μL sample of the cell suspension was counted on an Invitrogen Countess II to determine cell viability and cell count per mL. […]
Following the 30 minute incubation, 5 μL of labeled d2 cAMP and 5 μL of anti-cAMP antibody (both diluted 1:20 in cell lysis buffer; as described in the manufacturer's assay protocol) were added to each well of the assay plate. […] Raw data were converted to nM cAMP by interpolation from a cAMP standard curve (as described in the manufacturer's assay protocol) and the percent effect was determined relative to a saturating concentration of the full agonist GLP-17-37 (10 nM) included on each plate. […]

GLP1R, sequence (P43220 24-463): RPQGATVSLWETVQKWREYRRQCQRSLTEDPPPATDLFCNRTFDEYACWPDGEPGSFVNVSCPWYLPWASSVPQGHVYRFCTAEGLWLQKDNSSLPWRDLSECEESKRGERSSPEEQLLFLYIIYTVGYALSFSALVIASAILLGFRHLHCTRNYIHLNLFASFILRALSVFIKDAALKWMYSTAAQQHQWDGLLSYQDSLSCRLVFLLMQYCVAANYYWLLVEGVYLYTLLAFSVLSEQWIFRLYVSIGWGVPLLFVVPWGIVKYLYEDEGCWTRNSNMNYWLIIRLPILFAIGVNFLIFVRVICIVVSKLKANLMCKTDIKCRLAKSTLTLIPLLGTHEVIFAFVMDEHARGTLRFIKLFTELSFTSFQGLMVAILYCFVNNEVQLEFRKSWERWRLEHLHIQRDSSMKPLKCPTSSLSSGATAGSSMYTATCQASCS

EC50: ≤ 0.15 µM
SMILES: N#Cc1ccc(COc2cc(F)cc(C3=CCN(Cc4nc5ccc(C(=O)O)cc5n4C[C@@H]4CCO4)CC3)c2)c(F)c1 [Compound 218, (S)-2-((4-(3-((4-cyano-2-fluorobenzyl)oxy)-5-fluorophenyl)-5,6-dihydropyridin-1(2H)-yl)methyl)-1-(oxetan-2-ylmethyl)-1H-benzo[d]imidazole-6-carboxylic acid]
